According to patent publication US20080260807A1, “Water-Soluble Films Comprising Nicotine” (Bio Progress Technology Limited, priority 2005, published 2008):

What was measured:
[1] = aqueous solution of hydroxyl ethyl cellulose, Pullulan, polyvinyl pyrollidone and propylene glycol alginate, cast to thin film
Excerpt: Alternatively, films of the present invention can be made by dissolving NBD in an aqueous solution of hydroxyl ethyl cellulose, Pullulan, polyvinyl pyrollidone (“PVP”), and propylene glycol alginate (“POGA”). This solution can then be cast to form thin films of the present invention. […] Films made according to the process, in addition to comprising embodiments of the present invention, can be used as the base water-soluble film to which the fluid comprising nicotine is applied. Further, or in the alternative, the aqueous solution thus described can comprise the fluid comprising nicotine for application to the base water-soluble film.

[2] = in water or alcohol; cited from earlier work

Structure (SMILES)	Crystallisation during formation of the film [1]	Solubility [2]
CN1CCCC1c1cccnc1.O.O.O=C(O)C(O)C(O)C(=O)O (centres unmarked) [Nicotine Bitartrate Dihydrate, nicotine bitartrate dihydrate]	does not crystallize	
CN1CCCC1c1cccnc1 (centres unmarked) [Nicotine]		Soluble in water
